Source: PubChem BioAssay AID588715 (Vanderbilt Specialized Chemistry Center, 2011)
Calls of active or inactive are those of the source. No rule for the calls is given here.

The compounds below were run against Metabotropic glutamate receptor 5 (Rattus norvegicus) (UniProt P31424) (assay: potentiators of rat mGlu5 glutamate response – cell-based, HEK293A, calcium mobilization, SAR follow-up (AID 588715)). Details: HEK293A rat mGluR5, Ca2+ mobilization fluorescence, PAM.
Chain of Metabotropic glutamate receptor 5 (Rattus norvegicus) (P31424 whole entry, looked up): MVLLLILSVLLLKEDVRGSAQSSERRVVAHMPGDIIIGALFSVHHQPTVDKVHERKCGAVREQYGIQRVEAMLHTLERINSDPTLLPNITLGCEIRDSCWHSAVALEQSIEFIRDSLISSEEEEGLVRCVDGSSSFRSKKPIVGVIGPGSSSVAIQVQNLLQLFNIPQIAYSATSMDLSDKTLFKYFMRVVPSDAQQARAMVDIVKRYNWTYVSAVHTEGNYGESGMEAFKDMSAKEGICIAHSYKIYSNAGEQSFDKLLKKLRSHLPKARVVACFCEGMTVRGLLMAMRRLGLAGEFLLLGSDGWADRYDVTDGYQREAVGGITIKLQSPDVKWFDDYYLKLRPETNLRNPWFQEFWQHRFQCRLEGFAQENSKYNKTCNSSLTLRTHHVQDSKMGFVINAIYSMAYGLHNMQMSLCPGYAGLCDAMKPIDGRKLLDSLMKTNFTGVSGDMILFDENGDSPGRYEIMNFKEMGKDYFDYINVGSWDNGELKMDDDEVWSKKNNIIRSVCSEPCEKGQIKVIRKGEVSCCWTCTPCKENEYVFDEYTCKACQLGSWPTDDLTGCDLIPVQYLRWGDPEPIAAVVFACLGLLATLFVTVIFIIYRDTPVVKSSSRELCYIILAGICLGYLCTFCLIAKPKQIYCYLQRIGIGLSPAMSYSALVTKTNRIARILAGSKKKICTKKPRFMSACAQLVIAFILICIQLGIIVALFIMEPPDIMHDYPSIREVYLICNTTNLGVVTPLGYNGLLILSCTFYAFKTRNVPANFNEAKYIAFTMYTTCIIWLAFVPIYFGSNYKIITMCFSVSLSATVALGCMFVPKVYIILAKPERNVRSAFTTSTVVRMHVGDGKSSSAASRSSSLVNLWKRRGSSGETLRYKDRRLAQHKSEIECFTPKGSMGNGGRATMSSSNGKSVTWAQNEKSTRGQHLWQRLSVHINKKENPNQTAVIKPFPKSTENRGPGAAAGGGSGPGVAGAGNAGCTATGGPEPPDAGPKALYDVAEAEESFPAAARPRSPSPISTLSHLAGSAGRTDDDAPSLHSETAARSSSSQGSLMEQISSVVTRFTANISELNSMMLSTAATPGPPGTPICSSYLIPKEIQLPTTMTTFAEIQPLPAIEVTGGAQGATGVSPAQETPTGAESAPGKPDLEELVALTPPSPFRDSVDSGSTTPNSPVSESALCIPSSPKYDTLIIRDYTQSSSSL

EC50 [µM] | Structure (SMILES)
4.82 | O=C(NC1COC1)c1ccc(C#Cc2cccc(F)c2)nc1
0.008 | C[C@@H](NC(=O)c1ccc(C#Cc2cccc(F)c2)cn1)C(C)(C)O
0.09 | C[C@@H](NC(=O)c1ccc(C#Cc2cccc(F)c2)nc1)C(C)(C)O
0.006 | CC(C)(CO)NC(=O)c1ccc(C#Cc2cccc(F)c2)cn1
0.035 | CC(C)(C)NC(=O)c1ccc(C#Cc2cccc(F)c2)nc1
0.213 | CC(C)(CO)NC(=O)c1ccc(C#Cc2cccc(F)c2)nc1
0.523 | O=C(c1ccc(C#Cc2ccccc2)cc1)N1CCC(O)CC1
0.013 | CC(C)(C)NC(=O)c1ccc(C#Cc2cccc(F)c2)cn1
0.409 | CC(CO)(CO)NC(=O)c1ccc(C#Cc2cccc(F)c2)cn1
0.012 | O=C(NC1CCC1)c1ccc(C#Cc2cccc(F)c2)cn1
0.193 | O=C(NC1CC(O)C1)c1ccc(C#Cc2cccc(F)c2)cn1 (stereo not drawn)
0.071 | O=C(NC1CCC1)c1ccc(C#Cc2cccc(F)c2)nc1
0.545 | O=C(c1ccc(C#Cc2cccc(F)c2)nc1)N1CCC(O)CC1
0.025 | O=C(NC1CCC1)c1ccc(C#Cc2cccc(F)c2)c[n+]1[O-]

Second part, the compound before the results:

Structure (SMILES) | EC50 [µM]
C[C@@H](NC(=O)c1ccc(C#CC2CC2)cn1)C(C)(C)O | 1.58
O=C(NC1CCC1)c1ccc(C#CC2CCCC2)cn1 | 0.265
O=C(NC1CCC1)c1ccc(C#CC2CC2)cn1 | 1.28
O=C(COCc1ccncc1)N1CCN(c2ccc(F)cc2Cl)CC1 | 2.29

Same assay, conditions: HEK293A rat mGluR5, Ca2+ mobilization fluorescence, PAM; at 29.8 µM (top of the series)

percent of glutamate ECmax | Structure (SMILES)
inactive | O=C(NC1CC(O)C1)c1ccc(C#CC2CC2)cn1 (stereo not drawn)
inactive | O=C(c1ccc(C#Cc2cccc(F)c2)cn1)N1CCCCC1
inactive | CC1(NC(=O)c2ccc(C#CC3CC3)cn2)COC1
inactive | O=C(O)c1ccc(C#Cc2cccc(F)c2)cn1
40 | CC1(NC(=O)c2ccc(C#Cc3cccc(F)c3)nc2)COC1
inactive | O=C(c1ccc(C#Cc2cccc(F)c2)cn1)N1CCC(O)CC1

Further lines, the compound ahead of its results:

Structure (SMILES) | percent of glutamate ECmax
CC(C)(CO)NC(=O)c1ccc(C#CC2CC2)cn1 | inactive
O=C(NC1CCC1)c1ccc(C#CC2CC2)c[n+]1[O-] | inactive
O=C(NC1CC(O)C1)c1ccc(C#CC2CC2)cc1 (stereo not drawn) | inactive
CC(C)(CO)NC(=O)c1ccc(C#CC2CC2)cc1 | inactive
CC1(NC(=O)c2ccc(C#CC3CC3)cc2)COC1 | inactive
C[C@@H](NC(=O)c1ccc(C#CC2CC2)cc1)C(C)(C)O | 45
CC1(NC(=O)c2ccc(C#CC3CC3)nc2)COC1 | inactive
C[C@@H](NC(=O)c1ccc(C#CC2CC2)nc1)C(C)(C)O | inactive
CC(C)(CO)NC(=O)c1ccc(C#CC2CC2)nc1 | inactive
